Measured values reported in ChEMBL document CHEMBL1201862, “PubChem BioAssay data set” (2004).
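Compound exposure: 48 hours, 5 concentrations, 96-well plates. Abbreviation: GI50, concentration required for 50% inhibition of growth.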 The source made the active and inactive calls. Rule as the data show it: active = GI50 up to about 1.1 µM and inactive = higher.

Experiments:
Experiment in all cases: NCI tumour cell line growth inhibition, 48 h
NCI/ADR-RES = test system: NCI/ADR-RES
PC-3 = test system: PC-3
M14 = test system: M14
OVCAR-5 = test system: OVCAR-5
UO-31 = test system: UO-31
BT-549 = test system: BT-549
MCF7 = test system: MCF7
HCT-116 = test system: HCT-116
MDA-MB-435 = test system: MDA-MB-435
NCI-H460 = test system: NCI-H460
U-251 = test system: U-251
HOP-92 = test system: HOP-92
MDA-N = test system: MDA-N
T47D = test system: T47D
IGROV-1 = test system: IGROV-1
SF-539 = test system: SF-539
SN12C = test system: SN12C
CCRF-CEM = test system: CCRF-CEM
Hs-578T = test system: Hs-578T
SF-268 = test system: SF-268

SMILES | GI50 (NCI/ADR-RES) | GI50 (PC-3) | GI50 (M14) | GI50 (OVCAR-5) | GI50 (UO-31) | GI50 (BT-549) | GI50 (MCF7) | GI50 (HCT-116) | GI50 (MDA-MB-435) | GI50 (NCI-H460) | GI50 (U-251) | GI50 (HOP-92) | GI50 (MDA-N) | GI50 (T47D) | GI50 (IGROV-1) | GI50 (SF-539) | GI50 (SN12C) | GI50 (CCRF-CEM) | GI50 (Hs-578T) | GI50 (SF-268)
COc1cc(O)c2c(=O)cc(C3(OC(C)=O)C=CC(OC4OC(CO)C(O)C(O)C4O)C=C3)oc2c1 (stereo unspecified) | > 100 µM (inactive) | > 100 µM (inactive) | > 100 µM (inactive) | > 100 µM (inactive) | > 100 µM (inactive) | > 100 µM (inactive) | > 100 µM (inactive) | > 100 µM (inactive) | > 100 µM (inactive) | > 100 µM (inactive) | > 100 µM (inactive) | > 100 µM (inactive) | > 100 µM (inactive) | > 100 µM (inactive) | > 100 µM (inactive) | > 100 µM (inactive) | > 100 µM (inactive) | > 100 µM (inactive) | – | –
NC(Cc1ccccc1)c1nccs1 (stereo unspecified) | > 100 µM (inactive) | > 100 µM (inactive) | > 100 µM (inactive) | > 100 µM (inactive) | > 100 µM (inactive) | > 100 µM (inactive) | > 100 µM (inactive) | > 100 µM (inactive) | > 100 µM (inactive) | – | > 100 µM (inactive) | > 100 µM (inactive) | > 100 µM (inactive) | – | > 100 µM (inactive) | > 100 µM (inactive) | > 100 µM (inactive) | > 100 µM (inactive) | > 100 µM (inactive) | > 100 µM (inactive)
CC(C#N)N(CCc1ccccc1)C(=O)c1ccccc1 (stereo unspecified) | > 100 µM (inactive) | > 100 µM (inactive) | > 100 µM (inactive) | > 100 µM (inactive) | 84.9 µM (inactive) | > 100 µM (inactive) | > 100 µM (inactive) | > 100 µM (inactive) | > 100 µM (inactive) | – | > 100 µM (inactive) | – | > 100 µM (inactive) | 39.2 µM (inactive) | > 100 µM (inactive) | > 100 µM (inactive) | > 100 µM (inactive) | > 100 µM (inactive) | > 100 µM (inactive) | > 100 µM (inactive)
S=C(Nc1ccc(Br)cn1)NC12CC3CC(CC(C3)C1)C2 | 17.4 µM (inactive) | 17 µM (inactive) | 46 µM (inactive) | 17.5 µM (inactive) | 28.3 µM (inactive) | > 10 µM (inactive) | 26.3 µM (inactive) | 10.7 µM (inactive) | 92.9 µM (inactive) | 28.5 µM (inactive) | 11.3 µM (inactive) | 7.18 µM (inactive) | 15.8 µM (inactive) | 49.1 µM (inactive) | 8.59 µM (inactive) | 10.1 µM (inactive) | – | 25.4 µM (inactive) | – | 11.4 µM (inactive)
c1ccc(/N=C2\c3ccccc3CN2c2ccccn2)nc1 | – | 70.1 µM (inactive) | > 100 µM (inactive) | > 100 µM (inactive) | > 100 µM (inactive) | > 100 µM (inactive) | 49.9 µM (inactive) | 74.3 µM (inactive) | > 100 µM (inactive) | 89.3 µM (inactive) | > 100 µM (inactive) | 15.7 µM (inactive) | > 100 µM (inactive) | 17.5 µM (inactive) | > 100 µM (inactive) | > 100 µM (inactive) | > 100 µM (inactive) | – | > 100 µM (inactive) | > 100 µM (inactive)
CC(=O)CC1=C(OC(C)C)C2(OCCO2)C1O (stereo unspecified) | – | > 100 µM (inactive) | > 100 µM (inactive) | > 100 µM (inactive) | > 100 µM (inactive) | > 100 µM (inactive) | > 100 µM (inactive) | > 100 µM (inactive) | > 100 µM (inactive) | > 100 µM (inactive) | > 100 µM (inactive) | > 100 µM (inactive) | > 100 µM (inactive) | > 100 µM (inactive) | > 100 µM (inactive) | > 100 µM (inactive) | > 100 µM (inactive) | > 100 µM (inactive) | > 100 µM (inactive) | > 100 µM (inactive)
COc1ccc(-c2c(C(=O)Nc3ccccc3)c(-c3ccccc3)n(C3OC(CO)C(O)C(O)C3O)c(=S)c2C#N)cc1 (stereo unspecified) | > 100 µM (inactive) | > 100 µM (inactive) | > 100 µM (inactive) | > 100 µM (inactive) | > 100 µM (inactive) | 0.719 µM (active) | > 100 µM (inactive) | > 100 µM (inactive) | > 100 µM (inactive) | > 100 µM (inactive) | > 100 µM (inactive) | > 100 µM (inactive) | > 100 µM (inactive) | – | > 100 µM (inactive) | – | > 100 µM (inactive) | > 100 µM (inactive) | > 100 µM (inactive) | > 100 µM (inactive)
COc1ccc2oc(=O)c(-c3nc4ccccc4s3)cc2c1 | 28.8 µM (inactive) | 63.8 µM (inactive) | 22.7 µM (inactive) | 23 µM (inactive) | 13.9 µM (inactive) | > 63.7 µM (inactive) | – | 11.6 µM (inactive) | 12 µM (inactive) | 16.6 µM (inactive) | 15 µM (inactive) | 19.7 µM (inactive) | 20.1 µM (inactive) | 20.6 µM (inactive) | 12.8 µM (inactive) | 3.92 µM (inactive) | 33.4 µM (inactive) | > 38.5 µM (inactive) | 23.2 µM (inactive) | 34 µM (inactive)
